The test system of test [1] is tonic extensor seizures elicited by maximal electroshock. The experiment in a line: electroshock induced convulsion inhibition assay (E.S.). Type of test: in vivo, Cox standard strain albino male mice. As to conditions: mice; for ED50: Mus musculus, oral dose (gavage), 0.2 second, 50 milliampere corneal electroshock, inhibition of extensor tonic convulsions in half of the animals, at time of optimal response; for Time after dosing providing an approximately optimal response: oral gavage, time between dosing and administration of the electroshock. Here is the method: In the electroshock induced convulsion inhibition assay (E.S.), the compound to be tested was suspended in acacia and administered by gavage to each of ten Cox standard strain albino male mice (18-24 g) at the dose level being investigated. Thirty to 180 minutes after compound administration, the mice were subjected to a 0.2 second, 50 milliampere electroshock through corneal electrodes. The animals were examined and evaluated immediately after the electroshock for the occurrence of clonic, flexor tonic, or extensor tonic convulsions, or death and the ED50 was determined for each compound as the dose which inhibited the occurrence of extensor tonic convulsions in one half of the animals immediately after the electroshock. For comparison, 18 milliamperes was usually sufficient to produce extensor tonic convulsions in about half of the control animals; at 50 milliamperes, almost all control animals (receiving vehicle only) died. The test results summarized in Table I are reported as the ED50 values calculated by computer interpolation of fixed doses at the time interval found to provide an optimal response after dosing. For comparison purposes, N-(2,6-dimethylphenyl)-3-pyridinecarboxamide, taught as an intermediate in Example 4 of U.S. Pat. No. 4,361,572, was also evaluated--this compound is referred to in Table I below as Compound A.

A further test relates to seizures. As to conditions: man; cited from earlier work.

In the case of `Cc1ccc(C(=O)Nc2c(C)cccc2Cl)cn1` [Example 3, N-(2-Chloro-6-methylphenyl)-6-methyl-3-pyridinecarboxamide], in test [1], it took a dose of 20.2 mg/kg to reach the 50% effect level (ED50) and the “Time after dosing providing an approximately optimal response” value (from here on “Time”) worked out at 60 min. On the same counts, the results for `Cc1cccc(C)c1NC(=O)c1ccc(Cl)nc1` [Example 1, 6-Chloro-N-(2,6-dimethylphenyl)-3-pyridinecarboxamide] are 31.7 mg/kg and 30 min. On the same counts, the results for `CNc1ccc(C(=O)Nc2c(C)cccc2C)cn1` [Example 4, 6-(Methylamino)-N-(2,6-dimethylphenyl)-3-pyridinecarboxamide] are 8.7 mg/kg and 60 min.

As for `Cc1ccc(C(=O)Nc2c(C)cccc2C)cn1` [Example 2, N-(2,6-Dimethylphenyl)-6-methyl-3-pyridinecarboxamide], in test [1], the 50% effect level (ED50) was put at a dose of 6.7 mg/kg and the “Time” value is 60 min. As to `O=C1NC(=O)C(c2ccccc2)(c2ccccc2)N1` [phenytoin], the “plasma level that controls seizures” value in the test on seizures was at least 10 µg/mL.

As for `Cc1cccc(C)c1NC(=O)c1cccnc1` [Compound A, N-(2,6-dimethylphenyl)-3-pyridinecarboxamide, reference compound], in test [1], the ED50 is 24.5 mg/kg and the “Time” value was found to be 30 min.

One may read the ED50 as the midpoint of the dose-response relation. Low readings indicate greater potency, high ones weaker potency.

The record behind these values is patent publication US4973597A, “Anticonvulsant agents” (Eli Lilly and Company, priority 1989, dated 1990).
